Test results reported in paper PMC4552634, “A New Set of Chemical Starting Points with Plasmodium falciparum Transmission-Blocking Potential for Antimalarial Drug Discovery” (PLoS ONE, 2015).
Like-named read-outs stand apart in the source and are kept apart here.

Tests used:
[1] = system: P. falciparum stage V gametocytes; test: Gametocytocidal ATP bioluminescence assay (single point 5 μM and 1 μM, dose-response); format: cell-based, Plasmodium falciparum; settings: for Ratio IC50 HepG2/IC50 P. falciparum: IC50 HepG2 divided by IC50 P. falciparum gametocytes; for IC90 / IC50: Plasmodium falciparum; for IC90: ATP assay, Fig 7, read-out: IC90 against gametocytes
Experimental: Purified stage IV-V gametocytes were obtained as previously described [10]. Single point ATP bioluminescence assay and dose–response of positive hits was determined in accordance with the previously published protocol [10].

[2] = system: P. falciparum asexual stages; settings: cited from earlier work
[3] = system: luciferase reaction (BacTiter-Glo); test: Interference assay (inhibition of the BacTiter-Glo luciferase reaction); format: biochemical; parameters: concentration or dose not given beside the values; settings: ATP interference assay
Experimental: To discard possible false-positive results, we performed an interference assay in parallel. […] […]. The ATP solution was made by dissolving ATP powder (ATP standard from the ATPlite 1 step assay kit, reference 6016731, Perkin Elmer) in culture medium. The positive control used was the Luciferase Inhibitor I Calbiochem (Merck, 119113) at 100 μM.

[4] = system: mature P. falciparum NF54 gametocytes (male gametocyte exflagellation); test: Exflagellation assay; format: cell-based, Plasmodium falciparum; settings: for % Exflagellation inh. at the IC90: 48 h, concentration = IC90, Fig 7; for % Inhibition exflagellation: 48 h post-treatment at the IC90 of the ATP assay, normalized to control, Fig 6
Experimental: The exflagellation assay was performed as described by Delves et al., with some modifications. Briefly, 200 μL samples of mature P. falciparum NF54 gametocytes culture in the presence of the corresponding test compound were incubated at 37°C for 48 h in an atmosphere of 5% CO2, 5% O2, 90% N2 in 1.5 mL microfuge tubes. After the incubation period, cells were settled down and medium was carefully removed. The cell pellets were resuspended in 15 μl of complete ookinete medium (RPMI medium with 25 mM HEPES, 50 mg/L hypoxanthine, 2 g/L sodium bicarbonate, 100 μM xanthurenic acid, 20% human serum) pre-warmed at 37°C. Once parasites were resuspended in ookinete medium, they were introduced in a chamber of a FastRead disposable hemocytometer slide and placed on a horizontal surface at room temperature (21°C), to allow cells to homogeneously settle, forming a tight monolayer.

[5] = Cytotoxicity in HepG2 cells (intracellular ATP, ATPlite, 48 h); format: cell-based, human; settings: human, HepG2 cells
Experimental: (§1) Cells were grown and maintained in EMEM (Sigma-Aldrich) supplemented with 2mM L-glutamine (Sigma-Aldrich) and 10% fetal calf serum (Perbio). […] Passages were routinely made upon reaching 80–90% confluence. For cytotoxicity experiments, cells were seeded onto 96-well clear bottom black plates coated with type I collagen (Biocoat, Becton Dickinson) at a cell density of 20,000 cells/well.
(§2) To determine cytotoxic effects, represented by the Tox50 value (the concentration of drug that reduces cell viability by 50%), cells were exposed to serial dilutions of compounds for 48 h at 37°C. The assay medium was as previously described, but supplemented with 5% fetal calf serum instead of 10%. […] In the presence of ATP, luminescence is emitted as the reaction described earlier for the BacTiter-Glo kit. Percentages of inhibition were calculated relative to vehicle control wells.

HepG2 cells = test: as above; format: cell-based, human; settings: IC50 HepG2 divided by IC50 P. falciparum gametocytes
Experimental: as §1, §2

[6] = system: P. falciparum NF54 gametocytes fed to An. stephensi mosquitoes; test: Standard membrane feeding assay (SMFA); format: in vivo, Plasmodium falciparum; settings: for Infection Prevalence (%): An. stephensi fed gametocytes treated 48 h at the IC90, Fig 6, one of two independent experiments, control 94%; for % Prevalence of infection / % Reduction oocysts SMFA / Block in Transmission (%) / Reduction in Oocyst (%): gametocytes treated 48 h at the IC90; for % Prevalence of infection / % Reduction oocysts SMFA: Fig 7; for Block in Transmission (%) / Reduction in Oocyst (%): normalized to DMSO control, Fig 6; for Reduction in Oocyst (%): mean oocyst intensity
Experimental: Gametocyte cultures of the P. falciparum NF54 strain, kindly provided by Robert Sinden (Imperial College London), were induced at 0.5% asexual parasitemia and 4% hematocrit (RBCs from the Spanish Red Cross) at 40 mL final volume in T75 flasks. Gametocyte production media comprised RPMI 1640 (Sigma, #R5886), 30 mM bicarbonate (Sigma-Aldrich, #S5761) and 5 mM hypoxanthine (Gibco, #11067–030). Media were made complete with 5% human serum A^+ (Interstate Blood Bank, USA) and 5% AlbuMAX II (Gibco, #11021–037). Cultures were maintained in a gassed incubator at 37°C with 5% CO2, 5% O2, 90% N2 for 14–17 days post-induction, with daily medium replacement without the addition of fresh RBCs. Percentages of mature gametocytes were assessed by microscopic counts (Leica, DM2000) of Giemsa-stained thin blood smears, and functional microgametocytes were assessed for exflagellation activity at room temperature. To test exflagellation, mature gametocyte cultures were centrifuged at 1800 rpm for one minute. The infected RBC pellet was gently mixed with an equal volume of pre-warmed human serum and introduced onto a slide with a coverslip, followed by incubation at room temperature for 10–15 min. The average exflagellation centers per field at 10X magnification was determined by the exflagellation assay described above. Gametocyte counts and exflagellation assays were performed both before and after gametocyte drug treatment (at the time of SMFA).
Two days before gametocyte treatment with compound, spent media was removed and fresh Gametocyte Treatment Medium consisting of RPMI1640 with L-glutamine and 25 mM HEPES (Gibco, #13018–031), 10 mM glucose (Sigma-Aldrich, #G8270), 20 mM bicarbonate (Sigma-Aldrich, #S5761) and 5 mM hypoxanthine (Gibco, #11067) was added. Media were made complete with 10% of human A^+ serum (Interstate Blood Bank). Five ml of mature gametocyte culture at day 15 post-induction was transferred into each well of a pre-warmed 6-well plate. The selected TCAMS compounds were prepared fresh as a stock solution of 10 mM in 100% of DMSO and added to the mature gametocytes at the concentrations described in Fig 7. Gametocytes were exposed to the compound for a total duration of 48 h. At 24 h post-drug exposure, a fixed volume (3 mL) of spent medium was removed and fresh medium was re-added, accompanied by compound replenishment to obtain the required final concentration. Untreated gametocytes with the same final concentration of DMSO (0.1%) as in treated gametocytes were processed in parallel.
On the day of the feed, cultures were centrifuged at 2500 g for 3 min at 37°C, diluted 1:1 with 100% packed cell volume of fresh RBCs, and finally formulated as artificial mosquito blood meals at 50% hematocrit with pre-warmed human serum. All steps were performed at 37°C. Prepared blood meals were fed in duplicate to 4–6 days old female An. stephensi mosquitoes for 30–40 min via Parafilm membrane attached to glass feeders (Fisher Scientific, #12831283) connected to a 37°C circulating water bath. Fed mosquitoes were maintained in an incubator at 27°C and 75% relative humidity with 12 h light/dark cycles. At 7–8 days post-feeding, mosquitoes with fully developed ovaries were dissected for midguts (Leica, M80) and incubated in 0.2% mercurochrome solution in distilled water for 10–15 min. The total number of oocysts in individual midguts was counted using a light microscope (Leica, DM2000) under a 10X objective (100X magnification). Both infection prevalence (percentage of mosquitoes with one or more oocysts) and mean oocyst intensity of infection were defined in each treatment. The percentage block in transmission and the percentage reduction in mean oocyst intensity were calculated after normalizing to the Control DMSO-treated sample.

[7] = P. falciparum gametocytes, average, read-out: IC50 Pf Gametocytes average, IC50 (µM) average
[8] = P. falciparum asexual stages, TCAMS data, read-out: IC50 (µM) Pf asexual stages
[9] = asexual stages, TCAMS data, read-out: IC50 asexual
[10] = HepG2, 48 h exposure, intracellular ATP, read-out: IC50 (μM) Cytotoxicity HepG2
[11] = IC50 per ratio column head, unit inferred, read-out: Cytotoxicity in HepG2
[12] = sexual stages (gametocytes), dose-response, read-out: IC50 sexual

With Cc1[nH]c2ccccc2c1C(=O)C(C)Sc1nnc(-c2ccccc2Br)[nH]1 (centres unmarked) [TCMDC-125114] the “Ratio IC50 HepG2/IC50 P. falciparum” value [1] was 74, the IC90 [1] was 2500 nM and the IC50 [1, 7] was 0.67 µM. For the same compound, the IC50 [2, 8] was 0.0348 µM, the IC50 ([2]; as previously determined for TCAMS, read-out: IC50 (μM) Pf Asexual stages) was 0.03 µM and the IC50 [2, 9] was 0.035 µM. For the same compound, the “% Control luminiscence” value [3] was 99%, the “% Exflagellation inh. at the IC90” value [4] was 97% and the “% Inhibition exflagellation” value [4] was 97.00%. For the same compound, the IC50 at 48 h [5, 10] was > 25 µM, the IC50 at 48 h [5, 11] was 49.3 µM and the “Ratio IC50 HepG2/IC50 P. falciparum” value (HepG2 cells) was 74. For the same compound, the “Infection Prevalence (%)” value [6] was 2%, the “% Prevalence of infection” value [6] was 2% and the “% Reduction oocysts SMFA” value [6] was 100%. For the same compound, the “Block in Transmission (%)” value [6] was 98% and the “Reduction in Oocyst (%)” value [6] was 100%.
With COc1cccc(NC(=O)[C@H](C(C)C)n2c(=O)[nH]c3ccccc3c2=O)c1 [TCMDC-125133] the “Ratio IC50 HepG2/IC50 P. falciparum” value [1] was >93, the IC90 [1] was 2500 nM and the IC50 [1, 7] was 0.54 µM. For the same compound, the IC50 [1, 12] was 0.538 µM, the IC50 [2, 8] was 0.27 µM and the IC50 [2, 9] was 0.266 µM. The “% Control luminiscence” value [3] was 100%, the “% Exflagellation inh. at the IC90” value [4] was 88% and the “% Inhibition exflagellation” value [4] was 88.00%. For the same compound, the IC50 at 48 h [5, 10] was > 25 µM, the IC50 at 48 h [5, 11] was > 50 µM and the “Ratio IC50 HepG2/IC50 P. falciparum” value (HepG2 cells) was >93. For the same compound, the “Infection Prevalence (%)” value [6] was 3%, the “% Prevalence of infection” value [6] was 3% and the “% Reduction oocysts SMFA” value [6] was 100%. For the same compound, the “Block in Transmission (%)” value [6] was 97% and the “Reduction in Oocyst (%)” value [6] was 100%.
In the case of Cc1c(Cl)cccc1NC(=S)NN=Cc1ccccn1 [TCMDC-125487], the IC90 [1] is given as 2000 nM, the IC50 [1, 7] is given as 0.27 µM and the IC50 [2, 8] is given as 0.6 µM. The IC50 [2, 9] was 0.603 µM, the “% Exflagellation inh. at the IC90” value [4] was 98.3% and the “% Inhibition exflagellation” value [4] was 98.30%. The IC50 at 48 h [5, 11] was > 25 µM, the “Infection Prevalence (%)” value [6] was 0% and the “% Prevalence of infection” value [6] was 1%. The “% Reduction oocysts SMFA” value [6] was 100%, the “Block in Transmission (%)” value [6] was 100% and the “Reduction in Oocyst (%)” value [6] was 100%.
For CCC1CN2CCc3cc(OC)c(OC)cc3C2CC1CC1NCCc2cc(OC)c(OC)cc21 (centres unmarked) [TCMDC-125849], the IC90 [1] is given as 2000 nM, the IC50 [1, 12] is given as 0.117 µM and the IC50 [2, 8] is given as 0.14 µM. For the same compound, the IC50 [2, 9] was 0.145 µM, the “% Exflagellation inh. at the IC90” value [4] was 99.2% and the IC50 at 48 h [5, 10] was 18 µM. For the same compound, the IC50 at 48 h [5, 11] was 17.7 µM, the “Infection Prevalence (%)” value [6] was 3% and the “% Prevalence of infection” value [6] was 3%. The “% Reduction oocysts SMFA” value [6] was 100%, the “Block in Transmission (%)” value [6] was 97% and the “Reduction in Oocyst (%)” value [6] was 100%.
In the case of N=C(NCCCc1ccccc1)c1cccc(C(=N)NCCCc2ccccc2)n1 [TCMDC-137453], the “Ratio IC50 HepG2/IC50 P. falciparum” value [1] is reported as 41, the IC90 [1] is reported as 2000 nM and the IC50 [1, 7] is reported as 0.31 µM. The IC50 [1, 12] was 0.313 µM, the IC50 [2, 8] was 1.38 µM and the IC50 [2, 9] was 1.38 µM. For the same compound, the “% Control luminiscence” value [3] was 100%, the “% Exflagellation inh. at the IC90” value [4] was 97.3% and the IC50 at 48 h [5, 10] was 13 µM. The IC50 at 48 h [5, 11] was 12.8 µM, the “Ratio IC50 HepG2/IC50 P. falciparum” value (HepG2 cells) was 41 and the “Infection Prevalence (%)” value [6] was 5%. The “% Prevalence of infection” value [6] was 5%, the “% Reduction oocysts SMFA” value [6] was 100% and the “Block in Transmission (%)” value [6] was 95%. For the same compound, the “Reduction in Oocyst (%)” value [6] was 100%.
